Columns and labels:
[1] = tested on: BY4743; assay: Growth of BY4743 in isobutanol (growth yield, OD600); assay type: cell-based, Saccharomyces cerevisiae; conditions: 1 day (20 hr), 30° C.
[2] = tested on: Δslt2/Δslt2 (BY4743 having homozygous deletion of the SLT2 gene); assay: Growth of Δslt2 strain in isobutanol (growth yield, OD600); assay type: cell-based, Saccharomyces cerevisiae; conditions: 1 day (20 hr), 30° C.

CC(C)CO [isobutanol]
OD (A600) ([1]; 0.25 wt % isobutanol): >1 | OD (A600) ([1]; 0.50 wt % isobutanol): >1 | OD (A600) ([1]; 0.75 wt % isobutanol): 0.07 | OD (A600) ([1]; 0.87 wt % isobutanol): 0.07 | OD (A600) ([1]; 1.00 wt % isobutanol): 0.04 | OD (A600) ([1]; 1.25 wt % isobutanol): 0.02 | OD (A600) ([1]; 1.50 wt % isobutanol): 0.04 | OD (A600) ([2]; 0.25 wt % isobutanol): 0.07 | OD (A600) ([2]; 0.50 wt % isobutanol): 0.03 | OD (A600) ([2]; 0.75 wt % isobutanol): 0.03 | OD (A600) ([2]; 0.87 wt % isobutanol): 0.01 | OD (A600) ([2]; 1.00 wt % isobutanol): 0.01 | OD (A600) ([2]; 1.25 wt % isobutanol): 0.02 | OD (A600) ([2]; 1.50 wt % isobutanol): 0.02
